Results from ChEMBL document CHEMBL4130434, “Antineoplastic Agents. 604. The Path of Quinstatin Derivatives to Antibody Drug Conjugates” (2017).
*1 amine or outer side, *2 acyl side, *3 side chain or, on linkers, in order; H or OH if unused. Where a SMILES comes first, the peptide text is derived from it. [ ]: non-standard residue; d: D form. The star is where a group is joined. Dolaproine = CO[C@@H]([C@@H]1CCCN1)[C@@H](C)C(=O)O; Hexanoyl(6-maleimido) = O=C1C=CC(=O)N1CCCCCC(=O)*; Dil = CC[C@H](C)[C@H](NC)[C@@H](CC(=O)O)OC; PABC = O=C(OCc1ccc(N[*:1])cc1)[*:2]; Cit = NC(=O)NCCC[C@H](N)C(=O)O; NMeV = CN[C@H](C(=O)O)C(C)C; X1 = c1cnc2c(CCN*)cccc2c1; X2 = c1cc(CCN*)c2cccnc2c1; X3 = c1ccc2c(CCN*)ccnc2c1; X4 = c1ccc2nc(CCN*)ccc2c1

Experiments:
Assay type in all cases: functional
KM-20L2 = assay: Growth inhibition of human KM20L2 cells after 48 hrs by SRB assay; settings: KM-20L2, 48 h
MCF7 = assay: Growth inhibition of human MCF7 cells after 48 hrs by SRB assay; settings: MCF7, 48 h
SF-268 = assay: Growth inhibition of human SF268 cells after 48 hrs by SRB assay; settings: SF-268, 48 h
DU-145 = assay: Growth inhibition of human DU145 cells after 48 hrs by SRB assay; settings: DU-145, 48 h
BXPC-3 = assay: Growth inhibition of human BxPC3 cells after 48 hrs by SRB assay; settings: BXPC-3, 48 h
NCI-H460 = assay: Growth inhibition of human NCI-H460 cells after 48 hrs by SRB assay; settings: NCI-H460, 48 h

Row | SMILES | GI50 (KM-20L2) | GI50 (MCF7) | GI50 (SF-268) | GI50 (DU-145) | GI50 (BXPC-3) | GI50 (NCI-H460)
1 | CC[C@H](C)[C@@H]([C@@H](CC(=O)N1CCC[C@H]1[C@H](OC)[C@@H](C)C(=O)NCCc1cccc2ncccc12)OC)N(C)C(=O)[C@@H](NC(=O)[C@@H](NC)C(C)C)C(C)C (H-[NMeV]V[Dil][Dolaproine]-X2) | 0.582 nM | 0.298 nM | 0.311 nM | 0.812 nM | 27.1 nM | 37.9 nM
2 | CC[C@H](C)[C@@H]([C@@H](CC(=O)N1CCC[C@H]1[C@H](OC)[C@@H](C)C(=O)NCCc1ccnc2ccccc12)OC)N(C)C(=O)[C@@H](NC(=O)[C@H](C(C)C)N(C)C(=O)OCc1ccc(NC(=O)[C@H](CCCNC(N)=O)NC(=O)[C@@H](NC(=O)CCCCCN2C(=O)C=CC2=O)C(C)C)cc1)C(C)C ({Hexanoyl(6-maleimido)}-V[Cit][PABC][NMeV]V[Dil][Dolaproine]-X3) | 38.9 nM | 30.7 nM | 29.9 nM | 31.4 nM | 1570 nM | 2620 nM
3 | CC[C@H](C)[C@@H]([C@@H](CC(=O)N1CCC[C@H]1[C@H](OC)[C@@H](C)C(=O)NCCc1ccnc2ccccc12)OC)N(C)C(=O)[C@@H](NC(=O)[C@@H](NC)C(C)C)C(C)C (H-[NMeV]V[Dil][Dolaproine]-X3) | 0.596 nM | 0.149 nM | 0.176 nM | 0.135 nM | 67.7 nM | 67.7 nM
4 | CC[C@H](C)[C@@H]([C@@H](CC(=O)N1CCC[C@H]1[C@H](OC)[C@@H](C)C(=O)N[C@@H](Cc1ccccc1)c1nccs1)OC)N(C)C(=O)[C@@H](NC(=O)[C@H](C(C)C)N(C)C)C(C)C [DOLASTATIN-10] | 0.01 nM | 0.005 nM | 0.006 nM | 0.007 nM | 0.051 nM | 0.229 nM
5 | CC[C@H](C)[C@@H]([C@@H](CC(=O)N1CCC[C@H]1[C@H](OC)[C@@H](C)C(=O)NCCc1cccc2cccnc12)OC)N(C)C(=O)[C@@H](NC(=O)[C@H](C(C)C)N(C)C(=O)OCc1ccc(NC(=O)[C@H](CCCNC(N)=O)NC(=O)[C@@H](NC(=O)CCCCCN2C(=O)C=CC2=O)C(C)C)cc1)C(C)C ({Hexanoyl(6-maleimido)}-V[Cit][PABC][NMeV]V[Dil][Dolaproine]-X1) | 23.9 nM | 15 nM | 3.52 nM | 5.98 nM | 449 nM | 449 nM
6 | CC[C@H](C)[C@@H]([C@@H](CC(=O)N1CCC[C@H]1[C@H](OC)[C@@H](C)C(=O)NCCc1cccc2cccnc12)OC)N(C)C(=O)[C@@H](NC(=O)[C@@H](NC)C(C)C)C(C)C (H-[NMeV]V[Dil][Dolaproine]-X1) | 0.203 nM | 0.06 nM | 0.06 nM | 0.07 nM | 11.5 nM | 14.9 nM
7 | CC[C@H](C)[C@@H]([C@@H](CC(=O)N1CCC[C@H]1[C@H](OC)[C@@H](C)C(=O)NCCc1ccc2ccccc2n1)OC)N(C)C(=O)[C@@H](NC(=O)[C@@H](NC)C(C)C)C(C)C (H-[NMeV]V[Dil][Dolaproine]-X4) | 3.24 nM | 4.06 nM | 1.22 nM | 12.2 nM | 81.2 nM | 392 nM
8 | CC[C@H](C)[C@@H]([C@@H](CC(=O)N1CCC[C@H]1[C@H](OC)[C@@H](C)C(=O)NCCc1cccc2ncccc12)OC)N(C)C(=O)[C@@H](NC(=O)[C@H](C(C)C)N(C)C(=O)OCc1ccc(NC(=O)[C@H](CCCNC(N)=O)NC(=O)[C@@H](NC(=O)CCCCCN2C(=O)C=CC2=O)C(C)C)cc1)C(C)C ({Hexanoyl(6-maleimido)}-V[Cit][PABC][NMeV]V[Dil][Dolaproine]-X2) | 11.2 nM | 5.23 nM | 2.99 nM | 4.49 nM | 299 nM | 247 nM
